Data taken from patent publication US4241065A, “Fluoro analogs of hydrocodone and oxycodone useful as analgesics, narcotic antagonists or both” (priority 1979, dated 1980).
Where two headings read alike, the source gives them in different places.

Key:
in vivo = assay: in vivo; design: species or system mice (CF1 S female); conditions: sc, mouse
[1] = test system: Straub tail induced by morphine sulfate; assay: Modified Straub Tail Antagonism test; format: in vivo, mice; conditions: Mus musculus, sc; test drug subcutaneous in 1% methyl cellulose with 1.25% Tween 80; morphine sulfate 35 mg/kg i.p. 5 min later; observed after 15 min for 5 min; read-out: ED 50 (modified Straub Tail Antagonism)
Experimental: The Straub Tail Antagonism test was modified by giving test drugs (in 1% methyl cellulose with 1.25% "Tween 80") subcutaneously, followed by intraperitoneal injection of morphine sulfate (at 35 mg/kg) 5 minutes after the test drug. […] ED 50's were calculated as above with a 95% confidence limit as described by Litchfield, J. Pharmacol. Exp. Ther. 96, 99 (1949).

[2] = test system: pain induced by phenylquinone (writhing syndrome); assay: Phenylquinone writhing test (PQW), analgesic activity in mice; format: in vivo, mice (fasted female white mice)
Description: Exp. Biol. Med. 95, 729 (1957). […] Rev. 11 115-145 (1947).

[3] = test system: morphine-induced Straub tail in mice; assay: Narcotic antagonist (anti-Straub tail) test in mice; format: in vivo; conditions: ip, 10 min; mouse, compound intraperitoneal, 10 min later 53 mg/kg morphine sulfate s.c.; compounds of the invention as hydrochloride salt; 135 mg/kg or higher = inactive; read-out: Antistraub Tail ED50 (Mouse ED50 Values)
[4] = subcutaneous, within 25 minutes after dosing, compounds of the invention as hydrochloride salt, 135 mg/kg or higher = inactive, read-out: Straub Tail ED50 (Mouse ED50 Values)
[5] = 0.5 h, mouse, oral, observed for 10 min commencing 30 min after administration, compounds of the invention as hydrochloride salt, 135 mg/kg or higher = inactive, read-out: PQW ED50 (Mouse ED50 Values, POW)

**Q.** Which ED50 at 25 min (in vivo; [4]) does the source give for `COc1ccc2c3c1OC1C(F)(F)CC[C@H]4[C@@H](C2)N(CC2CCC2)CC[C@]314.Cl` (stereo partly drawn) [Compound 10, 17-Cyclobutylmethyl-4,5-epoxy-6,6-difluoro-3-methoxymorphinan Hydrochloride] here?
**A.** The ED50 at 25 min was over 81 mg/kg.

**Q.** Which ED50 at 25 min (in vivo; [4]) does the source give for `COc1ccc2c3c1O[C@H]1C(F)(F)CC[C@@]4(O)[C@@H](C2)N(CC2CCC2)CC[C@]314.Cl` [Compound 26, 17-Cyclobutylmethyl-4,5α-epoxy-6,6-difluoro-14β-hydroxy-3-methoxymorphinan Hydrochloride] here?
**A.** Its ED50 at 25 min is over 135 mg/kg.

**Q.** For `CN1CC[C@]23c4c5ccc(O)c4O[C@H]2[C@@H](O)C=C[C@H]3[C@H]1C5` [Morphine SO4, reference compound], which ED50 at 25 min (in vivo; 135 mg/kg) is on record?
**A.** Its ED50 at 25 min is 48 mg/kg.

**Q.** Which results are given for `Oc1ccc2c3c1OC1C(F)(F)CC[C@H]4[C@@H](C2)N(CC2CC2)CC[C@]314` (stereo partly drawn) [Compound 17, 17-Cyclopropylmethyl-4,5-epoxy-6,6-difluoro-3-hydroxymorphinan]?
**A.** ED50 [1]: 0.0033 mg/kg; ED50 ([2]; 0.5 h, mouse, oral, * peak time value (maximum activity within 30 min of administration), compounds of the invention as hydrochloride salt, read-out: PQW ED50 (Mouse ED50 Values, POW), peak time value): 2.6 mg/kg; ED50 at 25 min (in vivo; [4]): > 54 mg/kg; ED50 [3]: 0.003 mg/kg

**Q.** With `COc1ccc2c3c1O[C@H]1C(F)=CC[C@H]4[C@@H](C2)N(C)CC[C@]314.Cl` [Compound 2, 17-Methyl-6,7-didehydro-4,5-epoxy-6-fluoro-3-methoxymorphinan Hydrochloride] as the compound, how does the ED50 [2, 5] read?
**A.** The ED50 was 8.5 mg/kg.

**Q.** Which ED50 at 25 min (in vivo; [4]) does the source give for `COc1ccc2c3c1O[C@H]1[C@@H](O)C=C[C@H]4[C@@H](C2)N(C)CC[C@@]341` [Codeine PO4, reference compound] here?
**A.** Its ED50 at 25 min is 202 mg/kg.

**Q.** Which ED50 at 25 min (in vivo; [4]) does the source give for `COc1ccc2c3c1OC1C(F)(F)CC[C@H]4[C@@H](C2)N(CC2CC2)CC[C@]314` (stereo partly drawn) [Compound 15, 17-Cyclopropylmethyl-4,5-epoxy-6,6-difluoro-3-methoxymorphinan] here?
**A.** The ED50 at 25 min was over 54 mg/kg.

**Q.** With `CN1CC[C@]23c4c5ccc(O)c4OC2C(F)=CC[C@H]3[C@H]1C5.Cl` (stereo partly drawn) [Compound 6, 17-Methyl-6,7-didehydro-4,5-epoxy-6-fluoro-3-hydroxymorphinan Hydrochloride] as the compound, how does the ED50 [2, 5] read?
**A.** The ED50 was 8 mg/kg.

**Q.** What about the ED50 at 25 min (in vivo; [4]) of the same compound?
**A.** The ED50 at 25 min was 17 mg/kg.

**Q.** What does the source list for `CC(=O)Oc1ccc2c3c1O[C@H]1C(F)(F)CC[C@H]4[C@@H](C2)N(CC2CC2)CC[C@@]341` [Compound 30, 17-Cyclopropylmethyl-4,5α-epoxy-6,6-difluoro-3-acetoxymorphinan]?
**A.** ED50 [2, 5]: 2.2 mg/kg; ED50 at 25 min (in vivo; [4]): > 18 mg/kg; ED50 [3]: 0.0031 mg/kg

**Q.** Which ED50 [2, 5] does the source give for `CC(=O)Oc1ccc2c3c1O[C@H]1C(F)=CC[C@H]4[C@@H](C2)N(CC2CC2)CC[C@]314` [Compound 29, 17-Cyclopropylmethyl-6,7-didehydro-4,5α-epoxy-6-fluoro-3-acetoxymorphinan] here?
**A.** The ED50 was 1.3 mg/kg.

**Q.** What about the ED50 ([2]; Mus musculus, sc, 0.25 h, subcutaneous, fifteen minutes after injection, read-out: ED50 (analgesic, subcutaneous injection)) of the same compound?
**A.** The ED50 was 0.0016 mg/kg.

**Q.** What about the ED50 at 25 min (in vivo; [4]) of the same compound?
**A.** The ED50 at 25 min was over 18 mg/kg.

**Q.** What about the ED50 [3] of the same compound?
**A.** Its ED50 is 0.0022 mg/kg.

**Q.** Which ED50 [1] does the source give for `CC(C)=CCN1CCC2(C)c3cc(O)ccc3CC1C2C` (stereo not drawn) [Pentazocine, reference compound] here?
**A.** Its ED50 is 1.9 mg/kg.

**Q.** With `Cl.Oc1ccc2c3c1OC1C(F)=CC[C@H]4[C@@H](C2)N(CC2CC2)CC[C@]314` (stereo partly drawn) [Compound 18, 17-Cyclopropylmethyl-6,7-didehydro-4,5-epoxy-6-fluoro-3-hydroxymorphinan Hydrochloride] as the compound, how does the ED50 [2, 5] read?
**A.** The ED50 was 7.2 mg/kg.

**Q.** What about the ED50 at 25 min (in vivo; [4]) of the same compound?
**A.** Its ED50 at 25 min is over 135 mg/kg.

**Q.** What about the ED50 [3] of the same compound?
**A.** Its ED50 is 0.18 mg/kg.

**Q.** What does the source list for `COc1ccc2c3c1O[C@H]1C(F)(F)CC[C@H]4[C@@H](C2)N(C)CC[C@@]341.Cl` [Compound 4, 17-Methyl-4,5-epoxy-6,6-difluoro-3-methoxymorphinan Hydrochloride]?
**A.** ED50 at 25 min (in vivo; [4]): 10 mg/kg; ED50 [3]: > 81 mg/kg

**Q.** Which ED50 at 25 min (in vivo; [4]) does the source give for `COc1ccc2c3c1OC1C(F)C=CC4C(C2)N(C)CCC341` (stereo not drawn) [Ayer 3,137,701, reference compound] here?
**A.** The ED50 at 25 min was 63 mg/kg.

**Q.** For `COc1ccc2c3c1OC1C(F)=CC[C@H]4[C@@H](C2)N(CC2CC2)CC[C@]314` (stereo partly drawn) [Compound 16, 17-Cyclopropylmethyl-6,7-didehydro-4,5-epoxy-6-fluoro-3-methoxymorphinan], which ED50 at 25 min (in vivo; [4]) is on record?
**A.** Its ED50 at 25 min is over 135 mg/kg.
